Some results are limits rather than exact numbers.

The target of experiment [1] is GST-tagged KRAS-G12D (2-169) (Homo sapiens, UniProt P01116, G12D). Kind of experiment: Nucleotide exchange assay (NEA), SOS-mediated, HTRF, KRAS G12D. It is filed as biochemical. As to conditions: Table 4; IC50 extracted at 30 min; 20 nM SOScat; read-out: NEA G12D IC50. In outline: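 Compound preincubated 1 h at RT with 0.25 nM GST-KRAS-G12D (2-169) and anti-GST Tb donor, then 20 nM SOS1cat (564-1049) and 150 nM GTP-DY-647P1 added; pH 7.3 HEPES buffer with MgCl2 and DTT. HTRF monitored at RT; % inhibition versus DMSO and no-SOS blank, 4-parameter IC50 taken at 30 min.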

Experiment [2] has as its target GST-tagged KRAS-G12V (2-169) (Homo sapiens, UniProt P01116, G12V). Kind of experiment: Nucleotide exchange assay (NEA), SOS-mediated, HTRF, KRAS G12V. As to conditions: Table 4; IC50 extracted at 90 min; 80 nM SOS. It is filed as biochemical. In a few lines: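 GST-KRAS-G12V (2-169), 0.25 nM, pre-incubated 1 h at RT with compound, then SOS1cat (564-1049) 80 nM and GTP-DY-647P1 150 nM added in HEPES pH 7.3 buffer with MgCl2 and DTT. HTRF via anti-GST Tb cryptate read over 90 min; IC50 from 4-parameter fit at 90 min, blanked to no-SOS reactions.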

In experiment [3] the test system is phospho-ERK in GP2D (KRAS-G12D) cells. Kind of experiment: pERK In Cell Western (ICW) assay (Method B), GP2D. It is filed as cell-based. As to conditions: GP2d, 3 h, Table 4. The protocol: pERK ICW is a high throughput screening assay to evaluate the cellular potency of mutant KRAS small molecule inhibitors. KRAS mutant cell lines AGS, GP2D (KRAS-G12D) as well as SW620 (KRAS-G12V) were purchased from ATCC and maintained respectively in RPMI/DMEM/RPMI medium supplemented with 10% fetal bovine serum.
Cells grown in exponential phase were trypsinized, resuspended in fresh media, and viable cells were counted using a cell counter with Trypan Blue (BioRad TC20). Cells were seeded into 384-well plate (Greiner 781091) at density of 5,000 cells/well for AGS and 10,000 cells/well for GP2D/SW620 and allowed to grow overnight in a 37° C. CO2 incubator. The next day, compounds were dispensed into wells with a ½ log, 9-point serial dilution using a Tecan D300e dispenser and incubated for 3 hours in a 37° C. CO2 incubator. Cells were then fixed with paraformaldehyde (Electron Microscopy Sciences, 15710, 4% final concentration) for 30 min, permeabilized with wash buffer (1×PBS+0.1% Triton X-100) for 30 min and blocked with Odyssey blocking buffer (Li—COR 927-70001) for 1 hour, all at room temperature (RT). Phospho-ERK antibody (CST 4370L) was diluted 1:500 in Odyssey T20 (PBS) antibody diluent (Li—COR 927-75001) and incubated with cells overnight at 4° C. The next day, plates were washed 5× with wash buffer, incubated with IRDye 800 CW, Goat anti-Rabbit secondary antibody (Li—COR 926-32211, 1:800) and DRAQ5 (CST 4084L, 1:5,000) diluted in Odyssey T20 (PBS) antibody diluent for 1 hour, washed 5×, and imaged on an Odyssey CLx imaging system.
For data analysis, signal intensities from 800 (phosphor-ERK) and 700 (DRAQ5) channels were extracted, and phospho-ERK signals were normalized to DRAQ5 signals for each well and percent of blank control values were computed. Data were then imported into Graphpad Prism to compute half-maximal inhibitory concentrations (IC50) using a 4-parameter variable slope model. Z-factor for each plate was computed from signals derived from wells treated with either DMSO or 5 μM of control compound. AGS pERK ICW (Method B) IC50 (uM) values of selected compounds are depicted in Table 2 with compounds having a value ≥0.001 uM to 0.01 uM as ++++; ≥0.01 uM to 0.1 uM as +++; ≥0.1 uM to 1 uM as ++; ≥1 uM to 10 uM as + and ≥10 uM as NA.

For experiment [4], the system named is phospho-ERK in SW620 (KRAS-G12V) cells. Kind of experiment: pERK In Cell Western (ICW) assay (Method B), SW620. It is filed as cell-based. As to conditions: Homo sapiens, SW-620, 3 h, Table 4. In outline: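 Here IC50 reflects phospho-ERK suppression after 3 h compound exposure at 37 °C in cells grown in 10% FBS medium. Signal is normalized to DRAQ5 DNA stain and to blank control wells.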

Chain of GST-tagged KRAS-G12D (2-169) (P01116 2-169 isoform P01116-2 G12D): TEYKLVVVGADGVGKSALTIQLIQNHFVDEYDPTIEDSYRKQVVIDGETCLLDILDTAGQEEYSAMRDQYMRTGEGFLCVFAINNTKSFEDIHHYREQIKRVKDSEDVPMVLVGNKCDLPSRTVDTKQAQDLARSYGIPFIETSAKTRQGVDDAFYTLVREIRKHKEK
Chain of GST-tagged KRAS-G12V (2-169) (P01116 2-169 isoform P01116-2 G12V): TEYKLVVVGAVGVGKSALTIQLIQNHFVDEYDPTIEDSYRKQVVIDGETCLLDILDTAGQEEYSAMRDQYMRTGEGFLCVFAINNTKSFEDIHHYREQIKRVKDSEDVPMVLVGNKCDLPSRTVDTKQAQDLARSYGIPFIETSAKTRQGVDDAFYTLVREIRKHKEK

In the case of `C[C@@H]1[C@H](CO)CCCN1c1nc(OC[C@@]23CCCN2C[C@H](F)C3)nc(N2CC3(CCc4sc(N)c(C#N)c43)C2)n1` (racemic) [Compound 24, 2-amino-1′-[4-[[(2R,8S)-2-fluoro-1,2,3,5,6,7-hexahydropyrrolizin-8-yl]methoxy]-6-[rac-(2R,3R)-3-(hydroxymethyl)-2-methyl-1-piperidyl]-1,3,5-triazin-2-yl]spiro[5,6-dihydrocyclopenta[b]thiophene-4,3′-azetidine]-3-carbonitrile], the values for the half-maximal inhibitory concentration (IC50) in experiment [1], in experiment [2] and in experiment [3] were 100 to 1000 nM, 100 to 1000 nM and 1000 to 20000 nM, respectively.

In the case of `N#CCC1C=C(F)CN(c2nc(OC[C@@]34CCCN3C[C@H](F)C4)nc(N3CC4(CCc5sc(N)c(C#N)c54)C3)n2)C1` (stereo partly drawn) [Compound 25, 2-amino-1′-[4-[3-(cyanomethyl)-5-fluoro-3,6-dihydro-2H-pyridin-1-yl]-6-[[(2R,8S)-2-fluoro-1,2,3,5,6,7-hexahydropyrrolizin-8-yl]methoxy]-1,3,5-triazin-2-yl]spiro[5,6-dihydrocyclopenta[b]thiophene-4,3′-azetidine]-3-carbonitrile], the values for the IC50 in experiment [1], in experiment [2] and in experiment [3] were 10 to 100 nM, 10 to 100 nM and 100 to 1000 nM, respectively.

`N#Cc1c(N)sc2c1C1(CC2)CN(c2nc(OC[C@@]34CCCN3C[C@H](F)C4)nc(N3C[C@H](O)C[C@@H](O)C3)n2)C1` [Compound 26, 2-amino-1′-[4-[(3R,5R)-3,5-dihydroxy-1-piperidyl]-6-[[(2R,8S)-2-fluoro-1,2,3,5,6,7-hexahydropyrrolizin-8-yl]methoxy]-1,3,5-triazin-2-yl]spiro[5,6-dihydrocyclopenta[b]thiophene-4,3′-azetidine]-3-carbonitrile]: the 50% inhibitory concentration (IC50) in experiment [1] was 10 to 100 nM; in experiment [2], 10 to 100 nM; in experiment [3] it was ≥ 20000 nM.

Consider `C[C@@]1(O)CCCN(c2nc(OC[C@@]34CCCN3C[C@H](F)C4)nc(N3CC4(CCCc5sc(N)c(C#N)c54)C3)n2)C1` [Compound 30, 2-amino-1′-[4-[[(2R,8S)-2-fluoro-1,2,3,5,6,7-hexahydropyrrolizin-8-yl]methoxy]-6-[(3R)-3-hydroxy-3-methyl-1-piperidyl]-1,3,5-triazin-2-yl]spiro[6,7-dihydro-5H-benzothiophene-4,3′-azetidine]-3-carbonitrile], for which the IC50 is 10 to 100 nM in experiment [1], 10 to 100 nM in experiment [2] and 100 to 1000 nM in experiment [3].

Regarding `N#Cc1c(N)sc2c1C1(CC2)CN(c2nc(OC[C@@]34CCCN3C[C@H](F)C4)nc(N3CCc4noc(N)c4C3)n2)C1` [Compound 31, 2-amino-1′-[4-(3-amino-6,7-dihydro-4H-isoxazolo[4,3-c]pyridin-5-yl)-6-[[(2R,8S)-2-fluoro-1,2,3,5,6,7-hexahydropyrrolizin-8-yl]methoxy]-1,3,5-triazin-2-yl]spiro[5,6-dihydrocyclopenta[b]thiophene-4,3′-azetidine]-3-carbonitrile], the results for the IC50 in experiment [1], in experiment [2] and in experiment [3] were 10 to 100 nM, 100 to 1000 nM and 100 to 1000 nM, respectively.

In the case of `N#CNC1CCCN(c2nc(OC[C@@]34CCCN3C[C@H](F)C4)nc(N3CC4(CCc5sc(N)c(C#N)c54)C3)n2)C1` (stereo partly drawn) [Compound 33, [1-[4-(2-amino-3-cyano-spiro[5,6-dihydrocyclopenta[b]thiophene-4,3′-azetidine]-1′-yl)-6-[[(2R,8S)-2-fluoro-1,2,3,5,6,7-hexahydropyrrolizin-8-yl]methoxy]-1,3,5-triazin-2-yl]-3-piperidyl]cyanamide], the IC50 in experiment [1] was 10 to 100 nM; in experiment [2] it was < 10 nM; in experiment [3], 100 to 1000 nM.

`N#Cc1c(N)sc2c1C1(CN(c3nc(OC[C@@]45CCCN4C[C@H](F)C5)nc(N4CC(O)NC(=O)C45CC5)n3)C1)SC2` (stereo partly drawn) [Compound 255, 2-amino-1′-[4-[[(2R,8S)-2-fluoro-1,2,3,5,6,7-hexahydropyrrolizin-8-yl]methoxy]-6-(6-hydroxy-8-oxo-4,7-diazaspiro[2.5]octan-4-yl)-1,3,5-triazin-2-yl]spiro[6H-thieno[3,4-b]thiophene-4,3′-azetidine]-3-carbonitrile]: the IC50 in experiment [1] was < 10 nM; in experiment [2], < 10 nM; in experiment [4], 1000 to 20000 nM.
